# Source: US20230372346A1, “TREATMENT REGIMENS FOR EXON-20 INSERTION MUTANT EGFR CANCERS” (CULLINAN PEARL CORP., priority 2020, published 2023)
# What was measured:
# [1] = system: subcutaneously-implanted tumors expressing EGFR with G719A+T790M mutations; details: cited from earlier work
# [2] = system: subcutaneously-implanted tumors expressing EGFR with exon 20 insertions; details: cited from earlier work
# [3] = system: phosphorylation of EGFR and its downstream effectors; details: cited from earlier work
# [4] = system: mutant EGFRs that possess mutations in exon 18 or exon 21; details: cited from earlier work
# [5] = system: mutant EGFRs that possess L718Q mutation in exon 18 in combination with ex19del+T790M or L858R+T790M; details: cited from earlier work
# WT EGFR = WT EGFR (Homo sapiens, UniProt P00533); details: cited from earlier work
# [6] = system: KRAS mutant cell lines, NCI-H23 cells, and NCI-H460 cells; details: EGFR-independent cell growth; cited from earlier work
# [7] = system: mutant EGFRs that possess mutations at L792 (L792H, L792F, L792Y) in exon 20 in combination with ex19del+T790M or L858R+T790M; details: cited from earlier work
# [8] = system: mutant EGFRs that possess in-frame insertion mutations in exon 20; details: A763_Y764insFQEA, V769_D770insASV, D770_N771insG, D770_N771insSVD, H773_V774insNPH, H773_V774insPH; cited from earlier work
# [9] = system: Ba/F3 cell lines harboring EGFR with mutations in exon 18 or exon 21; details: cited from earlier work
# [10] = system: Ba/F3 harboring wild type EGFR; details: cited from earlier work
# [11] = system: cells expressing EGFR with exon 20 insertion mutations; details: cells expressing EGFR with exon 20 insertion mutations compared with cells expressing WT EGFR; cited from earlier work
# [12] = Phase 1/2a study, safety and adverse events (CTCAE v5); format: in vivo, human
# From the text: This is a Phase 1/2a, open-label, multicenter, first-in-human trial to evaluate the safety and tolerability, PK, PD, and preliminary efficacy of CLN-081 in patients with non-small cell lung cancer (NSCLC) harboring epidermal growth factor receptor (EGFR) exon 20 insertion mutations.
# DLTs will be determined based on the incidence and intensity of AEs related to CLN-081 (excluding toxicities clearly related to disease progression or other inter-current illness) as defined below. Dose escalation decisions will be determined based on DLT that occur during the 21 days after initiation of CLN-081 dosing. AEs meeting the definition of a DLT that are observed after 21 days will be made available to the SRC in case a pattern of late toxicity emerges. Toxicity will be graded by the Common Toxicity Criteria for Adverse Events (CTCAE) v5.0. Patients who experience AEs meeting the criteria for DLT should pause treatment with CLN-081 pending management and resolution of the event, and assessment of the relationship of the AE to CLN-081 administration.
# Safety and tolerability will be assessed by the incidence and severity of AEs as determined by CTCAE v5.
# [13] = system: NSCLC cell lines harboring mutant EGFR; details: LXF 2478 and NCI-H1975 EGFR D770_N771insSVD cells; with inhibition of EGFR phosphorylation and induction of caspase 3/7; cited from earlier work
# [14] = system: EGFR and EGFR mutants that harbor an exon 20 insertion mutation; details: EGFR and exon 20 insertion mutants; cited from earlier work
# [15] = G719A, G719S, G719C, E709K, E709A, L861Q
# [16] = baseline ex19del+T790M or L858R+T790M
# [17] = 44/45 patients, all dose levels
# Chain of WT EGFR (P00533 25-1210): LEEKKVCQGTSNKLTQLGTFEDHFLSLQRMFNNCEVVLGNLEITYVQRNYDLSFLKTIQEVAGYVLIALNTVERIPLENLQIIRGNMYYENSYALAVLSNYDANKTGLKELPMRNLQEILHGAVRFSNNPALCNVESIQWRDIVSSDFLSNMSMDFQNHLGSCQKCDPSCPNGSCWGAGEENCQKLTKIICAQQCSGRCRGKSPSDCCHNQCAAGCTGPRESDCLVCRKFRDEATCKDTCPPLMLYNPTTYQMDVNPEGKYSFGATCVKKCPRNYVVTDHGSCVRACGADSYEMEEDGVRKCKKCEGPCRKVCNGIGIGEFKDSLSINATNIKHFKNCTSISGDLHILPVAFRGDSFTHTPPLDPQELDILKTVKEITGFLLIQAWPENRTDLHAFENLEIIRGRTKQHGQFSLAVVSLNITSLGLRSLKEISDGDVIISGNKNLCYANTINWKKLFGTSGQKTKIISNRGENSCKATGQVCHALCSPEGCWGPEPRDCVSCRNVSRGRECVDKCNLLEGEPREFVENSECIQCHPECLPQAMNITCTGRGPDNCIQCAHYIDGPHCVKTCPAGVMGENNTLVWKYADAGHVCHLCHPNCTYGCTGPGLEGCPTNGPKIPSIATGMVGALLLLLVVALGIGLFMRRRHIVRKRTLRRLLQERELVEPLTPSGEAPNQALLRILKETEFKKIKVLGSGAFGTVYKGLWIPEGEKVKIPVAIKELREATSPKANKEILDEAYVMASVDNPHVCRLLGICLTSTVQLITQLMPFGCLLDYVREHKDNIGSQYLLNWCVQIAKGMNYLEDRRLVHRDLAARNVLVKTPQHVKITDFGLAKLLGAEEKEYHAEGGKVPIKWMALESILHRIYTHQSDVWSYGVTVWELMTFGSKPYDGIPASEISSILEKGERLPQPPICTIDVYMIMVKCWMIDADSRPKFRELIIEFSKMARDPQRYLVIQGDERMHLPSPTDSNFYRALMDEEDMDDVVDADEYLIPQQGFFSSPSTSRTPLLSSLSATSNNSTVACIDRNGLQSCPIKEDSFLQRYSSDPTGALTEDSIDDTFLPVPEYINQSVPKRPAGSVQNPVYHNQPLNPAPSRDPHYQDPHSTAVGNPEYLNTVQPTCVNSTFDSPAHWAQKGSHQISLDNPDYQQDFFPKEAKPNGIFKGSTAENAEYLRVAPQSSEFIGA
compound,measurement,setting,value
"C=CC(=O)N[C@H]1C=C(C)c2c(-c3cnc4ccccc4c3)c3c(N)ncnc3n2C1 [Compound 1, (S)—N-(4-amino-6-methyl-5-(quinolin-3-yl)-8,9-dihydropyrimido[5,4-b]indolizin-8-yl)acrylamide]",tumor growth inhibition,[1]; dose-dependent,significant tumor growth inhibition effects
same,"body weight loss, fecal abnormalities, or skin abnormalities","[1]; mouse, in vivo","not effected at a cost of body weight loss, fecal abnormalities, or skin abnormalities"
same,antitumor efficacy,"[2]; V769_D770insASV, D770_N771insSVD, H773_V774insNPH, dose-dependent",striking tumor growth inhibition and tumor regression effects
same,antitumor efficacy of twice-daily versus once-daily administration,[2]; nude mice transplanted with NCI-H1975 EGFR D770_N771insSVD,not inferior
same,in vivo inhibitory effect on the phosphorylation of EGFR and its downstream effectors,[3]; human lung cancer xenografts harboring EGFR exon 20 insertions,potent and durable in vivo inhibitory effect
same,effect on skin tissue with WT EGFR,[3]; in vivo,spares skin tissue with WT EGFR
same,inhibition against EGFRs harboring T790M and either exon 18 or exon 21 mutations,"[4]; G719A+T790M, L861Q+T790M",intensive inhibition
same,activity compared with erlotinib and osimertinib,[4]; [15],higher
same,potency in inhibiting the phosphorylation of mutant EGFRs,[4]; [15],intensive cellular potency
same,potency in inhibiting the phosphorylation of mutant EGFRs,[5]; L718Q+ex19del+T790M or L718Q+L858R+T790M,intensive cellular potency
same,"absolute activity and selectivity over baseline mutations compared with osimertinib, erlotinib and Afatinib",[5]; [16],higher
same,inhibition against WT EGFR,WT EGFR,moderate inhibition
same,GI50,[6],> 3000 nM
same,potency in inhibiting the phosphorylation of mutant EGFRs,"[7]; L792H, L792F, L792Y each with ex19del+T790M or L858R+T790M",intensive cellular potency
same,"absolute activity and selectivity over baseline mutations compared with osimertinib, erlotinib and Afatinib",[7]; [16],higher
same,potency in inhibiting the phosphorylation of mutant EGFRs,[8],intensive cellular potency
same,selectivity index compared to osimertinib,[9]; T790M in addition to either G719A or L861Q,higher
same,selectivity index (ratio between IC50 for WT EGFR and mutant EGFR cell lines) compared to erlotinib and afatinib,[9],much higher
same,IC50,[10],597 nM
same,inhibitory effect on proliferation,[11],more potent and selective inhibitory effect
same,patients with treatment-related discontinuations,[12]; 4 patients,9%
same,patients requiring dose reductions,[12]; 5 patients,11%
same,patients who experienced Gr ≥3 TRAEs,"[12]; 8/45 patients, all dose levels",18%
same,patients who experienced grade ≥3 AEs,"[12]; 20/45 patients, all dose levels",44%
same,"patients who experienced a treatment related adverse event (TRAE), irrespective of grade",[12]; [17],98%
same,"patients who experienced an adverse event (AE), irrespective of grade or attribution",[12]; [17],98%
same,patients with dose limiting toxicity (DLT),"[12]; Gr 3 diarrhea at 150 mg BID, the highest dose cohort, listed as CLN-081",One and one
same,"Grade ≥3 TRAEs in all patients: Anemia, %",[12]; N = 45,9%
same,"Grade ≥3 TRAEs in all patients: Diarrhea, %",[12]; N = 45,2%
same,"Grade ≥3 TRAEs in all patients: Increased ALT, %",[12]; N = 45,4%
same,"Grade ≥3 TRAEs in all patients: Increased AST, %",[12]; N = 45,4%
same,"Grade ≥3 TRAEs in all patients: Increased Amylase, %",[12]; N = 45,2%
same,"Grade ≥3 TRAEs in all patients: Neutropenia, %",[12]; N = 45,2%
same,"Grade ≥3 TRAEs in all patients: Stomatitis, %",[12]; N = 45,2%
same,patients with Gr ≥3 treatment-related rash,[12]; all dose levels,no patients
same,patients with treatment-related Gr 3 diarrhea,[12]; all dose levels,one
same,"TRAEs in ≥15% of patients: Anemia, %","[12]; any grade, N = 45",(18) %
same,"TRAEs in ≥15% of patients: Diarrhea, %","[12]; any grade, N = 45",(22) %
same,"TRAEs in ≥15% of patients: Dry Skin, %","[12]; any grade, N = 45",(16) %
same,"TRAEs in ≥15% of patients: Increased AST, %","[12]; any grade, N = 45",(16) %
same,"TRAEs in ≥15% of patients: Nausea, %","[12]; any grade, N = 45",(18) %
same,"TRAEs in ≥15% of patients: Paronychia, %","[12]; any grade, N = 45",(22) %
same,"TRAEs in ≥15% of patients: Rash, %","[12]; any grade, N = 45",(76) %
same,"TRAEs in ≥15% of patients: Stomatitis, %","[12]; any grade, N = 45",(18) %
same,diarrhea compared to historical experience with other EGFR inhibitors,[12]; in vivo,reduced frequency and severity of diarrhea
same,"most common AEs, regardless of attribution or grade",[12]; in vivo,"rash, anemia and diarrhea"
same,safety profile,[12]; in vivo,acceptable safety profile
same,safety profile at efficacious dose levels compared to other TKIs targeting EGFR exon 20 insertion mutations,[12]; in vivo,superior safety profile
same,patients who discontinued due to treatment-related Gr 2 pneumonitis,[12]; patient had also experienced pneumonitis on osimertinib,one
same,growth of NSCLC cells with EGFR exon 20 insertions,[13],suppressed the growth
same,inhibition of in vitro phosphorylation activity of EGFR and EGFR mutants,[14],inhibited
